How the values were obtained:
Assay type in all cases: cell-based, human
A549 cells [1] = experiment: MTT assay, cell viability; conditions: Homo sapiens, 24 hr treatment
Experimental: (§1) A549 (lung cancer cell line, non-resistance) and Anti-Dox-A549 (lung cancer cell line with resistance to Doxorubicin) were maintained in DMEM supplemented with 10% fetal bovine serum (FBS, Gibco), pH 7.4, 37° C. and with continuous circulation of 5% CO2. The medium was changed every 2 days and the cells were trypsinized with trypsin/EDTA when reaching 80%-90% confluence.
(§2) A549 and Anti-Dox-A549 were treated by the following treatment (Table 1) for 24 or 48 hr for examining the effects of HCD, PG, and Dox on their viability.
(§3) Dox1is referred as Dox of 1 μM; Dox2.5 is referred as Dox of 2.5 μM; Dox5 is referred as Dox of 5 μM; Dox10 is referred as Dox of 10 μM; Dox100 is referred as Dox of 100 μM. HCD2.5 is referred as HCD of 2.5 μM; HCD10 is referred as HCD of 10 μM; HCD25 is referred as HCD of 25 μM; HCD50 is referred as HCD of 50 μM. PG2.5 is referred as PG of 2.5 μM; PG5 is referred as PG of 5 μM; PG10 is referred as PG of 10 μM; PG20 is referred as PG of 20 μM.
(§4) In this example, the effects of HCD, PG, and Dox on the viability of A549 and anti-Dox-A549 were examined. The MTT assay was employed for this purpose. The MTT (3-(4-,5-dimethylthiazol-2-yl)-2,5-diphenyltetrazolium bromide) assay is a common colorimetric method in the field for cell viability analysis. MTT (yellow tetrazolium salt) is reduced to a purple formazan by living cells and detection to the purple formazan can be calculated as the cell viability.
(§5) Briefly, cells (A549 or Anti-Dox-A549) were seeded in 96-well plate (7×10^3 cell per well) and incubated overnight (37° C., 5% CO2).

Anti-Dox-A549 cells [2] = experiment: MTT assay, cell viability; conditions: Homo sapiens, 24 hr treatment
Experimental: as §1, §2, §3, §4, §5

A549 cells [3] = experiment: Cell cycle analysis by flow cytometer (PI staining); conditions: for G0/G1 (%) / G2/M (%) / S (%) / Sub G1 (%): 24 hr, Table 7 (head prints Anti-Dox-A549; b90: A549 cells)
Experimental: (§6) The results of Example 2 in cell viability hinted the effects of HCD, PG, and Dox on arresting cell cycle. In this example, the phase of cell cycle of A549 cells and Anti-Dox-A549 cells after the treatment listed in Table 1 was determined by flow cytometer. Briefly, 7×10^4 cells per well were to inoculated in 12-wells plate and incubated overnight at 37° C., 5% CO2. Then, cells were treated according to the treatment listed in Table 1 by indicated time period. After treatment, cells were harvested by trypsin and fixed with 70% ethanol at −20° C. for at least 3 hr. The cells were washed in cold PBS twice and then incubated with 1 ml (v/v) staining solution (20 μg/m1 propidium iodide (PI), 0.1% Triton X-100, 0.2 mg/ml Rnase) at 37° C. for 30 minutes. Lastly, cells were analyzed by flow cytometer (Cytomics™ FC500, Backman, Fullerton, Calif., USA). Data from 10,000 cells were collected for each experimental group.

Anti-Dox-A549 cells [4] = experiment: as above; conditions: for G0/G1 (%) / G2/M (%) / S (%) / Sub G1 (%): 24 hr, Anti-Dox-A549 (Table 6)
Experimental: as §6

SMILES: COc1cccc2c1C(=O)c1c(O)c3c(c(O)c1C2=O)C[C@@](O)(C(=O)CO)C[C@@H]3O[C@H]1C[C@H](N)[C@H](O)[C@H](C)O1 [Dox, Doxorubicin]
- IC50 (A549 cells [1]): 5 to 10 µM
- IC50 (Anti-Dox-A549 cells [2]): ~100 µM
- cell cycle effect (A549 cells [3]; A549 cells, Dox 5, 10, or 20 μM (Table 7)): increased at Sub G1 phase and showed cell arrest at sub G1 phase
- G0/G1 (%) (A549 cells [3]; Dox 5 μM): 50.3 ± 0.9 %
- G2/M (%) (A549 cells [3]; Dox 5 μM): 15.2 ± 1.6 %
- S (%) (A549 cells [3]; Dox 5 μM): 23.5 ± 0.7 %
- Sub G1 (%) (A549 cells [3]; Dox 5 μM): 5.8 ± 0.5 %
- G0/G1 (%) (A549 cells [3]; Dox 10 μM): 50.2 ± 1.4 %
- G2/M (%) (A549 cells [3]; Dox 10 μM): 17 ± 0.3 %
- S (%) (A549 cells [3]; Dox 10 μM): 20.3 ± 0.9 %
- Sub G1 (%) (A549 cells [3]; Dox 10 μM): 7.4 ± 2.3 %
- G0/G1 (%) (A549 cells [3]; Dox 20 μM): 37.3 ± 2.1 %
- G2/M (%) (A549 cells [3]; Dox 20 μM): 21.5 ± 1.6%
- S (%) (A549 cells [3]; Dox 20 μM): 23.5 ± 0.7 %
- Sub G1 (%) (A549 cells [3]; Dox 20 μM): 9.0 ± 0.8 %
- cell cycle effect (Anti-Dox-A549 cells [4]; Anti-Dox-A549 cells, Dox 5, 10, or 20 μM (Table 6)): increased at Sub G1 phase and showed cell arrest at S phase
- G0/G1 (%) (Anti-Dox-A549 cells [4]; Dox 5 μM): 54.7 ± 1.3 %
- G2/M (%) (Anti-Dox-A549 cells [4]; Dox 5 μM): 9.9 ± 0.7 %
- S (%) (Anti-Dox-A549 cells [4]; Dox 5 μM): 24.1 ± 0.5 %
- Sub G1 (%) (Anti-Dox-A549 cells [4]; Dox 5 μM): 6.4 ± 0.6 %
- G0/G1 (%) (Anti-Dox-A549 cells [4]; Dox 10 μM): 62.8 ± 0.6%
- G2/M (%) (Anti-Dox-A549 cells [4]; Dox 10 μM): 9.4 ± 0.9 %
- S (%) (Anti-Dox-A549 cells [4]; Dox 10 μM): 19.9 ± 0.1 %
- Sub G1 (%) (Anti-Dox-A549 cells [4]; Dox 10 μM): 4.6 ± 0.3 %
- G0/G1 (%) (Anti-Dox-A549 cells [4]; Dox 20 μM): 58.1 ± 3.4%
- G2/M (%) (Anti-Dox-A549 cells [4]; Dox 20 μM): 12.4 ± 1.5%
- S (%) (Anti-Dox-A549 cells [4]; Dox 20 μM): 18.7 ± 0.4 %
- Sub G1 (%) (Anti-Dox-A549 cells [4]; Dox 20 μM): 6.2 ± 0.6 %
